The values that follow come from PMC8318231, “Rate-of-Kill (RoK) assays to triage large compound sets for Chagas disease drug discovery: Application to GSK Chagas Box” (PLoS Neglected Tropical Diseases, 2021).

The subject of this test is T. cruzi intracellular amastigotes in H9c2 cells. In words: RoK combination assay with BNZ. Type of test: cell-based, Trypanosoma cruzi. The procedure:
The assay was performed following the same experimental procedure mentioned above in the RoK assay. The infected H9c2 cells were treated with final 10 and 50 μM concentrations of BNZ and DMSO before being dispensed into the plates containing the compounds. For the combination with 50 μM BNZ, two plates were incubated for 4 and 24 hours respectively before being fixed. For the combinations with 10 μM BNZ and with DMSO, four plates for each condition were incubated for 4, 24, 48 and 72 hours before being fixed.

Where “and” joins values, the source holds several entries; their conditions need not be identical. Equal values may be shown once.

With `O=C(Cn1ccnc1[N+](=O)[O-])NCc1ccccc1` [BNDZ 10], the AM/CELL is 2.035 and 2.023 (combo BNDZ 10 with unnamed compound at Concentration 16.6667, time 4); 1.123 and 1.3558 (combo BNDZ 10 with unnamed compound at Concentration 16.6667, time 24); 0.3934 and 0.4677 (combo BNDZ 10 with unnamed compound at Concentration 16.6667, time 48); 0.5411 and 0.6092 (combo BNDZ 10 with unnamed compound at Concentration 16.6667, time 72); 1.931 and 1.78 (combo BNDZ 10 with unnamed compound at Concentration 50, time 4); 0.8406 and 1.092 (combo BNDZ 10 with unnamed compound at Concentration 50, time 24). The AM/CELL is 0.412 and 0.3872 (combo BNDZ 10 with unnamed compound at Concentration 50, time 48); 0.6445 and 0.5238 (combo BNDZ 10 with unnamed compound at Concentration 50, time 72).
